Results: ChEMBL document CHEMBL1909046, “DrugMatrix in vitro pharmacology data”

Assays:
[1] = molecular target: Matrix metalloproteinase-9 (Homo sapiens, UniProt P14780); format: cell-based;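 note: inhibition of isolated MMP-9 enzyme activity toward a synthetic peptide substrate, from the DrugMatrix protease screening panel; in other assays of this panel Not Active means under 50% inhibition at 10 µM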
[2] = molecular target: C-C chemokine receptor type 2 (Homo sapiens, UniProt P41597); format: cell membranes, CHO-K1, Membrane; settings: cho-k1; note: in other assays of this panel Not Active means under 50% inhibition at 10 µM
Sequence of C-C chemokine receptor type 2 (P41597 whole entry): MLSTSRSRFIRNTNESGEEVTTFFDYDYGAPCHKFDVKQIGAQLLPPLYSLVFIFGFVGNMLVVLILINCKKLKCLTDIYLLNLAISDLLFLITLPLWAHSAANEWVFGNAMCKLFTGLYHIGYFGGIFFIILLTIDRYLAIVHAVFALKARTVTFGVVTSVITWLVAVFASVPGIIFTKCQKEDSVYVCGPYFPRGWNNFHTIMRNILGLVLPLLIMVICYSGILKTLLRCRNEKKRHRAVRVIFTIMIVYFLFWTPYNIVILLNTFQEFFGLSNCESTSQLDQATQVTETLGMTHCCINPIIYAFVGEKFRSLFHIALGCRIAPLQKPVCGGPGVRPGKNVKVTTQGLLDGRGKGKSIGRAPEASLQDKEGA

D(1A) dopamine receptor = D(1A) dopamine receptor (Homo sapiens, UniProt P21728); test: DRUGMATRIX: Dopamine D1 radioligand binding (ligand: [3H] SCH-23390); format: cell membranes, CHO, Membrane; settings: cho; Not Active = under 50% inhibition at 10 µM
Sequence of D(1A) dopamine receptor (P21728 whole entry): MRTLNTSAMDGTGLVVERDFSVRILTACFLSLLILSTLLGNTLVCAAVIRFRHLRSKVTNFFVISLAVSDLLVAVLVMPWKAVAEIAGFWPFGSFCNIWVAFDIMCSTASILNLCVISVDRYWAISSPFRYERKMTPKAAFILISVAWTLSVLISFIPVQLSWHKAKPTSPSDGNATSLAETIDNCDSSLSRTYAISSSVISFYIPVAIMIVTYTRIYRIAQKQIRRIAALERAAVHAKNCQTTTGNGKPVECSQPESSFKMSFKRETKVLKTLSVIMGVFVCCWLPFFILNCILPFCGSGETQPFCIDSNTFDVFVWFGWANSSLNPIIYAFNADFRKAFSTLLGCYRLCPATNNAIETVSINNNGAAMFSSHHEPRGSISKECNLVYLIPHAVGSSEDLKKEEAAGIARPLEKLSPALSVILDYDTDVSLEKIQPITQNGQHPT

[3] = molecular target: T1, Muscarinic acetylcholine receptor M4 (Homo sapiens, UniProt P08173); format: cell membranes, CHO-K1, Membrane; settings: cho-k1; note: in other assays of this panel Not Active means under 50% inhibition at 10 µM
T1 sequence (P08173 whole entry): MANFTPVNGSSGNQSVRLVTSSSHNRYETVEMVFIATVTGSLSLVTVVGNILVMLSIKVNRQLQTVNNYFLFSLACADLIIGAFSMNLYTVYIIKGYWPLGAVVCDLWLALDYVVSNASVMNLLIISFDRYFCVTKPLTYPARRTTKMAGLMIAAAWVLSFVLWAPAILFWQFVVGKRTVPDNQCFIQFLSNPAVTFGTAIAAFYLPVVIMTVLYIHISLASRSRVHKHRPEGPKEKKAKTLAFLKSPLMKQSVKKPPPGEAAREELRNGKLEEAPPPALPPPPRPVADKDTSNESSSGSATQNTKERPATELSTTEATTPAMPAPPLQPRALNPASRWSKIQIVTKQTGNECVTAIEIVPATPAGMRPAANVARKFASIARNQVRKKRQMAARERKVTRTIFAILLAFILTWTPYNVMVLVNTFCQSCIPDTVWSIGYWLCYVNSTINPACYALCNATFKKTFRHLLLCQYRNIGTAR

[4] = molecular target: 5-hydroxytryptamine receptor 4 (Cavia porcellus, UniProt O70528); format: cell membranes, Dunkin-Hartley, Striatum, Membrane; note: in other assays of this panel Not Active means under 50% inhibition at 10 µM
Sequence of 5-hydroxytryptamine receptor 4 (O70528 whole entry): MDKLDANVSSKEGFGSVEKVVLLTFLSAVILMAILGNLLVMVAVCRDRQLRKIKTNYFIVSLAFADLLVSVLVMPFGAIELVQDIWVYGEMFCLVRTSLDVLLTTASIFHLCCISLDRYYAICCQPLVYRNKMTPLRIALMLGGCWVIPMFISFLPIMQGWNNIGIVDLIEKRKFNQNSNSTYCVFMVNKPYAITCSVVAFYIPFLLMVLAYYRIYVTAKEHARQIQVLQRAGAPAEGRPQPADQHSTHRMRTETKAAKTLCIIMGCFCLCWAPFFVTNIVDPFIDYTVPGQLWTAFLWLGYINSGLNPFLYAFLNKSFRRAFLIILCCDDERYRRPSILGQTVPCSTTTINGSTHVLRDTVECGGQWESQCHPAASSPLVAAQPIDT

Cytochrome P450 2E1 = Cytochrome P450 2E1 (Homo sapiens, UniProt P05181); settings: bti-tn-5b1-4; note: in other assays of this panel Not Active means under 50% inhibition at 10 µM
Sequence of Cytochrome P450 2E1 (P05181 whole entry): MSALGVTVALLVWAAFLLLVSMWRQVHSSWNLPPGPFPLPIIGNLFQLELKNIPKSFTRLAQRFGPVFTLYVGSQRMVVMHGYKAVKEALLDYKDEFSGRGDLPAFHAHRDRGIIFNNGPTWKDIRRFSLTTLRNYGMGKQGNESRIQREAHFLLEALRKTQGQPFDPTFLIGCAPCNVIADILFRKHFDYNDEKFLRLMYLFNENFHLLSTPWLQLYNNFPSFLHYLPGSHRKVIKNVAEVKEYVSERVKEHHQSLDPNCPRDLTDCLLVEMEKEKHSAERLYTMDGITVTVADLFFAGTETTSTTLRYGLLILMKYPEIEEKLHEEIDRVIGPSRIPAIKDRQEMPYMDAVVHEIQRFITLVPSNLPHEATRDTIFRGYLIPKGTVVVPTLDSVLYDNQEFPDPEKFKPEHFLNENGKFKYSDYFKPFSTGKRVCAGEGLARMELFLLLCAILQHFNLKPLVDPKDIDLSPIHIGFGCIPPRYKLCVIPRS

B2 bradykinin receptor = molecular target: T2, B2 bradykinin receptor (Homo sapiens, UniProt P30411); format: cell membranes, Membrane; settings: chem-1; note: in other assays of this panel Not Active means under 50% inhibition at 10 µM
T2 sequence (P30411 whole entry): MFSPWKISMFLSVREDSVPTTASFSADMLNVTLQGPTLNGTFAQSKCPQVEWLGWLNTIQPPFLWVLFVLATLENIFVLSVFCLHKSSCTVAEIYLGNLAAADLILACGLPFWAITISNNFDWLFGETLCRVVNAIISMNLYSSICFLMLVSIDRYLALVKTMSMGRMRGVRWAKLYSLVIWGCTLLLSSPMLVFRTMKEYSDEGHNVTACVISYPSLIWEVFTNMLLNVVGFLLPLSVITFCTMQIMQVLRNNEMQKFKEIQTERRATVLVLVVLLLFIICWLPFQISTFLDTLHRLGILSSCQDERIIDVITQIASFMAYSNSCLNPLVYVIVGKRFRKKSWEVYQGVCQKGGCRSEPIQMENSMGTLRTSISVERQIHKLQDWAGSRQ

[5] = molecular target: T3, Receptor-type tyrosine-protein phosphatase C (Homo sapiens, UniProt P08575); parameters: species or system Escherichia coli
T3 sequence (P08575 whole entry): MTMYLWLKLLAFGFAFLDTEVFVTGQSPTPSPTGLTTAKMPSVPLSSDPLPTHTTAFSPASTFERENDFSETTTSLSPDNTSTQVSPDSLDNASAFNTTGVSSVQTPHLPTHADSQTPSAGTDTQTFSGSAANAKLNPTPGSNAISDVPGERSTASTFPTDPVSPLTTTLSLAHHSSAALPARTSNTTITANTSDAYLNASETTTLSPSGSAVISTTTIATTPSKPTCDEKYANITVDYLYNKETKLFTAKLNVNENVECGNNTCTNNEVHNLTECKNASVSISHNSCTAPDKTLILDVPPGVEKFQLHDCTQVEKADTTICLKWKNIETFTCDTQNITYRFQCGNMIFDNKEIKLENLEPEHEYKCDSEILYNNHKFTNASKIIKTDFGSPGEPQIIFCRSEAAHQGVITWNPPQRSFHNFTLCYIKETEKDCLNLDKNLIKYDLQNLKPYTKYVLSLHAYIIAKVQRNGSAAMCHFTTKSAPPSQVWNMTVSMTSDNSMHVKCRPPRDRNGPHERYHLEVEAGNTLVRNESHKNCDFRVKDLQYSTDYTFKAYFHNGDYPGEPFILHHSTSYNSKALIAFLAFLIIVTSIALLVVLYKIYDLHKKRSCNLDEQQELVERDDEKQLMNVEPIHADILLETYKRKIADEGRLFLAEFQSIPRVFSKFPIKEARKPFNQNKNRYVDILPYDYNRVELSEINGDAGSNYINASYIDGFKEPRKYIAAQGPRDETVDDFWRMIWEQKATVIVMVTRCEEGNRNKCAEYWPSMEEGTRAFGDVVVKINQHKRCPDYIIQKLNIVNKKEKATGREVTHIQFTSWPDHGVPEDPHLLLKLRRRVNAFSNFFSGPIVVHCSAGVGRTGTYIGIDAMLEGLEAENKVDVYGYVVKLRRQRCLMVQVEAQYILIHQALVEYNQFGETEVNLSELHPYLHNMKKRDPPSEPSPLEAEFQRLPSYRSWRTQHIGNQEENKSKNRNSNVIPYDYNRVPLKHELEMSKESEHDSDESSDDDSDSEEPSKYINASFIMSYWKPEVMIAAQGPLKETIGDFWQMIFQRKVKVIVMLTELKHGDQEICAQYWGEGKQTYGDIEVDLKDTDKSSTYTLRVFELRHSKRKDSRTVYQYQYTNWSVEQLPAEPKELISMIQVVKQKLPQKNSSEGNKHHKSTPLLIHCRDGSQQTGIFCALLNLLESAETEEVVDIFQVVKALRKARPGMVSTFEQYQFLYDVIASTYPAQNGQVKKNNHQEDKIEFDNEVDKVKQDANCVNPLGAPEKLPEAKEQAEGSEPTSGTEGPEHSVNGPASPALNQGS

[6] = molecular target: Sodium-dependent dopamine transporter (Homo sapiens, UniProt Q01959); test: DRUGMATRIX: Dopamine Transporter radioligand binding (ligand: [125I] RTI-55); format: cell membranes, CHO-K1, Membrane; settings: cho-k1; Not Active = under 50% inhibition at 10 µM
Sequence of Sodium-dependent dopamine transporter (Q01959 whole entry): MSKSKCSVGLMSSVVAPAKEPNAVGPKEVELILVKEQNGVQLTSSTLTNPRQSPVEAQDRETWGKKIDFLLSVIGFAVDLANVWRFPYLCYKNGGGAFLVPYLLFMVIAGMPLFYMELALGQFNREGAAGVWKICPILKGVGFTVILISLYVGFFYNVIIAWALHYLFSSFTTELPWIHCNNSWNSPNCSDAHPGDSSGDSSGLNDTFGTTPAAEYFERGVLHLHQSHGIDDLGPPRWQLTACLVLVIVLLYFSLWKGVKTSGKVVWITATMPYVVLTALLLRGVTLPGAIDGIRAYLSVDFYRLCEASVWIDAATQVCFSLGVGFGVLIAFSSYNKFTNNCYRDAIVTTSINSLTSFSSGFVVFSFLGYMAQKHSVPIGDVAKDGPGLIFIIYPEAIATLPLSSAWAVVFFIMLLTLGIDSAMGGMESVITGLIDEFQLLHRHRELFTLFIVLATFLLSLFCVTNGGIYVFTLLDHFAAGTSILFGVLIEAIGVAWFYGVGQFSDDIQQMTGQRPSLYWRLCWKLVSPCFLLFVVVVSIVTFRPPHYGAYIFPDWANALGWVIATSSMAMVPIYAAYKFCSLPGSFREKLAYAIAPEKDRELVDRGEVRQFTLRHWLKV

[7] = DRUGMATRIX: Calcium Channel Type L, Benzothiazepine radioligand binding (ligand: [3H] Diltiazem); format: cell membranes, Rattus norvegicus, Wistar, Brain, Membrane; settings: Not Active = under 50% inhibition at 10 µM
[8] = molecular target: C-C chemokine receptor type 5 (Homo sapiens, UniProt P51681); format: cell membranes, Membrane; settings: hek293; note: in other assays of this panel Not Active means under 50% inhibition at 10 µM
Sequence of C-C chemokine receptor type 5 (P51681 whole entry): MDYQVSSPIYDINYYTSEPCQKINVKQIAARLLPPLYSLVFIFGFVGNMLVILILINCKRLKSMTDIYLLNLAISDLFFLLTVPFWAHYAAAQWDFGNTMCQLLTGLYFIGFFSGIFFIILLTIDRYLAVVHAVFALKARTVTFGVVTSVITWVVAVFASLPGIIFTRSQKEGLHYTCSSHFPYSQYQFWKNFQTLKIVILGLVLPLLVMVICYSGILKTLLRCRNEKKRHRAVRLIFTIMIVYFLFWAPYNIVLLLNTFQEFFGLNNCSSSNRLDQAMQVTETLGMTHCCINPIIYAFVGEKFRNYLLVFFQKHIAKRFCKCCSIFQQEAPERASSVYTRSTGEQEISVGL

[9] = DRUGMATRIX: Glutamate, NMDA, Phencyclidine radioligand binding (ligand: [3H] TCP); format: cell membranes, Rattus norvegicus, Wistar, Cerebral cortex, Membrane; settings: Not Active = under 50% inhibition at 10 µM

Sequence of Matrix metalloproteinase-9 (P14780 whole entry): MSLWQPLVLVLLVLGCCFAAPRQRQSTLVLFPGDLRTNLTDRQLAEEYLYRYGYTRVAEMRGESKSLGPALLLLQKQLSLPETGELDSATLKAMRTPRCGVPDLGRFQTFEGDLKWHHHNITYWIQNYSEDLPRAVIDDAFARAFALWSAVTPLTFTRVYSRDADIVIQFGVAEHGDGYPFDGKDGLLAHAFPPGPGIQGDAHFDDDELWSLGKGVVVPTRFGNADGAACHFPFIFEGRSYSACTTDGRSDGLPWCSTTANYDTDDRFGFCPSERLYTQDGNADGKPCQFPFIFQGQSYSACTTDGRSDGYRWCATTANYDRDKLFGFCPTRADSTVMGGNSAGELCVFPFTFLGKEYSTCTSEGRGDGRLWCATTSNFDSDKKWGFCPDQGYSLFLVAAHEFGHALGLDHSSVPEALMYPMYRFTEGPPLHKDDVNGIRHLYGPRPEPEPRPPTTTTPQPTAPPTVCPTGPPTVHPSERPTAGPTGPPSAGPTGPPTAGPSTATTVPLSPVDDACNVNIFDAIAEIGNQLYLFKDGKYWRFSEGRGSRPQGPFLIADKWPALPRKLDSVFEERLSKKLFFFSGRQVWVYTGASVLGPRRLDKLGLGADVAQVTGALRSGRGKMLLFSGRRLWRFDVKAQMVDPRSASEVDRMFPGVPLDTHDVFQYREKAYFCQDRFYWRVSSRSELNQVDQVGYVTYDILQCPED

CC1=Nc2ccc(Cl)cc2S(=O)(=O)N1 [DIAZOXIDE]
Not Active: IC50 [1] | IC50 [2] | IC50 (D(1A) dopamine receptor) | IC50 [3] | IC50 [4] | IC50 (Cytochrome P450 2E1) | Ki (Cytochrome P450 2E1) | IC50 (B2 bradykinin receptor) | IC50 [5] | IC50 [6] | IC50 [7] | Ki [7] | IC50 [8] | IC50 [9] | Ki [9]

CCc1ccc(C(=O)C(C)CN2CCCCC2)cc1 (stereo not given) [EPERISONE]
Not Active: IC50 [1] | IC50 [2] | IC50 (D(1A) dopamine receptor) | IC50 [3] | IC50 [4] | IC50 (Cytochrome P450 2E1) | Ki (Cytochrome P450 2E1) | IC50 (B2 bradykinin receptor) | IC50 [5] | IC50 [6] | IC50 [7] | Ki [7] | IC50 [8] | IC50 [9] | Ki [9]

CC(C)n1c(/C=C/C(O)CC(O)CC(=O)O)c(-c2ccc(F)cc2)c2ccccc21 (stereo not given) [FLUVASTATIN]
Not Active: IC50 [1] | IC50 [2] | IC50 (D(1A) dopamine receptor) | IC50 [3] | IC50 [4] | IC50 (Cytochrome P450 2E1) | Ki (Cytochrome P450 2E1) | IC50 (B2 bradykinin receptor) | IC50 [5] | IC50 [6] | IC50 [7] | Ki [7] | IC50 [8] | IC50 [9] | Ki [9]

NCC1(CC(=O)O)CCCCC1 [GABAPENTIN]
Not Active: IC50 [1] | IC50 [2] | IC50 (D(1A) dopamine receptor) | IC50 [3] | IC50 [4] | IC50 (Cytochrome P450 2E1) | Ki (Cytochrome P450 2E1) | IC50 (B2 bradykinin receptor) | IC50 [5] | IC50 [6] | IC50 [7] | Ki [7] | IC50 [8] | IC50 [9] | Ki [9]

CC1COc2c(N3CCN(C)CC3)c(F)cc3c(=O)c(C(=O)O)cn1c23 (stereo not given) [OFLOXACIN]
Not Active: IC50 [1] | IC50 [2] | IC50 (D(1A) dopamine receptor) | IC50 [3] | IC50 [4] | IC50 (Cytochrome P450 2E1) | Ki (Cytochrome P450 2E1) | IC50 (B2 bradykinin receptor) | IC50 [5] | IC50 [6] | IC50 [7] | Ki [7] | IC50 [8] | IC50 [9] | Ki [9]

O=C1NC(=O)C(c2ccccc2)(c2ccccc2)N1 [PHENYTOIN]
Not Active: IC50 [1] | IC50 [2] | IC50 (D(1A) dopamine receptor) | IC50 [3] | IC50 [4] | IC50 (Cytochrome P450 2E1) | Ki (Cytochrome P450 2E1) | IC50 (B2 bradykinin receptor) | IC50 [5] | IC50 [6] | IC50 [7] | Ki [7] | IC50 [8] | IC50 [9] | Ki [9]

CNC(=O)Oc1ccc2c(c1)[C@]1(C)CCN(C)[C@@H]1N2C [PHYSOSTIGMINE]
Not Active: IC50 [1] | IC50 [2] | IC50 (D(1A) dopamine receptor) | IC50 [3] | IC50 [4] | IC50 (Cytochrome P450 2E1) | Ki (Cytochrome P450 2E1) | IC50 (B2 bradykinin receptor) | IC50 [5] | IC50 [6] | IC50 [7] | Ki [7] | IC50 [8] | IC50 [9] | Ki [9]
